Laboratory results from ChEMBL document CHEMBL5352493, “Dual inhibitors of ASK1 and PDK1 kinases: Design, synthesis, molecular docking and mechanism studies of N-benzyl pyridine-2-one containing derivatives as anti-fibrotic agents” (Eur J Med Chem, 2023).
The source made the active and inactive calls. The rule behind the calls is not given here.

Key:
[1] = Antiproliferative against rat NRK-49F cells measured after 48 hrs by CCK8 assay; type: toxicity, cell-based
HFL1 [2] = test: Downregulation of phosphorylated p38 in TGF-beta1 induced HFL1 cells at 5 to 10 uM for 24 hrs by Western blotting analysis; type: functional, cell-based; details: Homo sapiens, dose 5-10 µM
HFL1 [3] = test: Induction of apoptosis in HLF1 cells assessed as viable cells at 15 uM incubated for 24 hrs measured by annexinV-FITC/PI based flow cytometric analysis (reference value: 88.3%); type: functional; details: Homo sapiens, read-out: Activity
HFL1 [4] = test: Induction of apoptosis in HLF1 cells assessed as early apoptotic cells at 10 uM incubated for 24 hrs measured by annexinV-FITC/PI based flow cytometric analysis (reference value: 11.6%); type: functional, Homo sapiens
HFL1 [5] = test: Induction of apoptosis in HLF1 cells assessed as early apoptotic cells at 15 uM incubated for 24 hrs measured by annexinV-FITC/PI based flow cytometric analysis (reference value: 11.6%); type: functional, Homo sapiens
HFL1 [6] = test: Antifibrotic activity in TGF-beta1 induced HLF1 cells assessed as decrease in phosphorylated smad2 level measured at 5 to 10 uM after 24 hrs by Western blotting analysis; type: functional, cell-based; details: Homo sapiens, dose 5-10 µM
HFL1 [7] = test: Antifibrotic activity in TGF-beta1 induced HLF1 cells assessed as decrease in phosphorylated smad3 level measured at 5 to 10 uM after 24 hrs by Western blotting analysis; type: functional, cell-based; details: Homo sapiens, dose 5-10 µM
[8] = biological target: T1, Mitogen-activated protein kinase kinase kinase 5 (Homo sapiens, UniProt Q99683); test: Inhibition of human recombinant ASK1 using MBP as substrate preincubated for 1 hr followed by reagent addition incubated for 40 mins by ATP-Glo kinase assay
T1 sequence (Q99683 whole entry): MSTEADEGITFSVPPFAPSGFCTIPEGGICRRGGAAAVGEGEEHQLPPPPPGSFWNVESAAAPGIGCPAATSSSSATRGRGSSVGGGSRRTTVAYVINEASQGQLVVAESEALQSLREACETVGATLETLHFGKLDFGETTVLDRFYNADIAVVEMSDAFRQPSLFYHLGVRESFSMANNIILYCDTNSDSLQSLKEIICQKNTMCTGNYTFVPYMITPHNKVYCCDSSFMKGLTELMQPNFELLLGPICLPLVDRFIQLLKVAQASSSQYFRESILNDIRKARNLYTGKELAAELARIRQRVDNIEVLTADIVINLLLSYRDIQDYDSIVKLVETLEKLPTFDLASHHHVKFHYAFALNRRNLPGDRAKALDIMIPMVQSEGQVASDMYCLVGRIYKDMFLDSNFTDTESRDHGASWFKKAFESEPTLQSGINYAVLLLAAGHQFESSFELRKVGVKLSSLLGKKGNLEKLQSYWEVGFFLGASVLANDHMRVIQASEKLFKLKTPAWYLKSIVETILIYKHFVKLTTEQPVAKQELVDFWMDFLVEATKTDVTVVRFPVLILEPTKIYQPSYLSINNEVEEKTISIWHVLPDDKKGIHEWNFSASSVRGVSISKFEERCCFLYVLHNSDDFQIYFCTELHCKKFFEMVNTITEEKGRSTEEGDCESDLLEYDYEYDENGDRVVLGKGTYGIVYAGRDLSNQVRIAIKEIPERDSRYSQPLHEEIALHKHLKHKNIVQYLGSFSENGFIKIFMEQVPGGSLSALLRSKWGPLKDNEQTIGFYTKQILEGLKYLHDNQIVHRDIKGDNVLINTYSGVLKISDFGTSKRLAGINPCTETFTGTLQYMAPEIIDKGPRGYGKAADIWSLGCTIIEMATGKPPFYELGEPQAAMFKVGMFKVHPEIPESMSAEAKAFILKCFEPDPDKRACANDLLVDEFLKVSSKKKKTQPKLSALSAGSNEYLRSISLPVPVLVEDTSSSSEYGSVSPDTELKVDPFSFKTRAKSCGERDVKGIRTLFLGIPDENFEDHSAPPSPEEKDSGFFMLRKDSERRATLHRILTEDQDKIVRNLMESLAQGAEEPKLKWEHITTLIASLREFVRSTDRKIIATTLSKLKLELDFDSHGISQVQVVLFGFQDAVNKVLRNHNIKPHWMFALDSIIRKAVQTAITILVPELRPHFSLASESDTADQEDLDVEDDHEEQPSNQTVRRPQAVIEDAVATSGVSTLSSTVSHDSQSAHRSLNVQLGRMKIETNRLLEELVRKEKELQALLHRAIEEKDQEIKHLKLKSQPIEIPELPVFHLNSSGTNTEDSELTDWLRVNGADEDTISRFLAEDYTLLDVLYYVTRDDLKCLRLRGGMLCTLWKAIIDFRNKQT

HFL1 [9] = test: Induction of apoptosis in HLF1 cells assessed as late apoptotic cells at 15 uM incubated for 24 hrs measured by annexinV-FITC/PI based flow cytometric analysis (reference value: 0.08%); type: functional, Homo sapiens
HFL1 [10] = test: Induction of apoptosis in HLF1 cells assessed as necrotic cells at 10 uM incubated for 24 hrs measured by annexinV-FITC/PI based flow cytometric analysis (reference value: 0%); type: functional, Homo sapiens
HFL1 [11] = test: Induction of apoptosis in HLF1 cells assessed as viable cells at 5 uM incubated for 24 hrs measured by annexinV-FITC/PI based flow cytometric analysis (reference value: 88.3%); type: functional; details: Homo sapiens, read-out: Activity
HFL1 [12] = test: Downregulation of phosphorylated Akt in TGF-beta1 induced HFL1 cells at 10 microM for 24 hrs by Western blotting analysis; type: functional, cell-based; details: Homo sapiens
[13] = Antiproliferative against rat HSC-T6 cells measured after 48 hrs by CCK8 assay; type: toxicity, cell-based
HFL1 [14] = test: Induction of apoptosis in HLF1 cells assessed as early apoptotic cells at 5 uM incubated for 24 hrs measured by annexinV-FITC/PI based flow cytometric analysis (reference value: 11.6%); type: functional, Homo sapiens
HFL1 [15] = test: Induction of apoptosis in HLF1 cells assessed as necrotic cells at 5 uM incubated for 24 hrs measured by annexinV-FITC/PI based flow cytometric analysis (reference value: 0%); type: functional, Homo sapiens
HFL1 [16] = test: Downregulation of phosphorylated JNK in TGF-beta1 induced HFL1 cells at 5 to 10 uM for 24 hrs by Western blotting analysis; type: functional, cell-based; details: Homo sapiens, dose 5-10 µM
HFL1 [17] = test: Induction of apoptosis in HLF1 cells assessed as necrotic cells at 15 uM incubated for 24 hrs measured by annexinV-FITC/PI based flow cytometric analysis (reference value: 0%); type: functional, Homo sapiens
[18] = Antiproliferative against human BEAS-2B cells measured after 48 hrs by CCK8 assay; type: toxicity, cell-based
HFL1 [19] = test: Antifibrotic activity in TGF-beta1 induced HLF1 cells assessed as decrease in alpha SMA expression level measured at 5 to 10 uM after 24 hrs by Western blotting analysis; type: functional, cell-based; details: Homo sapiens, dose 5-10 µM
HFL1 [20] = test: Induction of apoptosis in HLF1 cells assessed as decrease in antiapoptotic Bcl-2 protein at 5 to 10 uM for 24 hrs by Western blotting analysis; type: functional, cell-based; details: Homo sapiens, dose 5-10 µM
HFL1 [21] = test: Antifibrotic activity in TGF-beta1 induced HLF1 cells assessed as decrease in collagen-I expression level measured at 5 to 10 uM after 24 hrs by Western blotting analysis; type: functional, cell-based; details: Homo sapiens, dose 5-10 µM
HFL1 [22] = test: Induction of apoptosis in HLF1 cells assessed as late apoptotic cells at 5 uM incubated for 24 hrs measured by annexinV-FITC/PI based flow cytometric analysis (reference value: 0.08%); type: functional, Homo sapiens
[23] = Antiproliferative against HLF1 cells measured after 48 hrs by CCK8 assay; type: toxicity, cell-based; details: human, HFL1 cells (description prints HLF1)
HFL1 [24] = test: Downregulation of phosphorylated PDK1 in TGF-beta1 induced HFL1 cells at 5 to 10 microM for 24 hrs by Western blotting analysis; type: functional, cell-based; details: Homo sapiens, dose 5-10 µM
HFL1 [25] = test: Downregulation of phosphorylated ASK1 in TGF-beta1 induced HFL1 cells at 5 to 10 uM for 24 hrs by Western blotting analysis; type: functional, cell-based; details: Homo sapiens, dose 5-10 µM
HFL1 [26] = test: Induction of apoptosis in HLF1 cells assessed as viable cells at 10 uM incubated for 24 hrs measured by annexinV-FITC/PI based flow cytometric analysis (reference value: 88.3%); type: functional; details: Homo sapiens, read-out: Activity
HFL1 [27] = test: Induction of apoptosis in HLF1 cells assessed as late apoptotic cells at 10 uM incubated for 24 hrs measured by annexinV-FITC/PI based flow cytometric analysis (reference value: 0.08%); type: functional, Homo sapiens

CC(C)n1cc(-c2cc(C(=O)Nc3cccc(-c4nncn4C4CC4)n3)c(=O)n(Cc3ccccc3F)c2)cn1
IC50 at 48 h [1]: 14.8 µM
Activity (HFL1 [2]): Active
viability at 15 µM (HFL1 [3]): 69.9%
Activity (HFL1 [4]): 25.6%
Activity (HFL1 [5]): 30%
Activity (HFL1 [6]): Active
Activity (HFL1 [7]): Active
IC50 [8]: 0.00913 µM
Activity (HFL1 [9]): 0.069%
Activity (HFL1 [10]): 0%
viability at 5 µM (HFL1 [11]): 80.5%
Activity (HFL1 [12]): Active
IC50 at 48 h [13]: 25 µM
Activity (HFL1 [14]): 19.4%
Activity (HFL1 [15]): 0%
Activity (HFL1 [16]): Active
Activity (HFL1 [17]): 0%
IC50 at 48 h [18]: 33 µM
Activity (HFL1 [19]): Dose-Dependent Effect
Activity (HFL1 [20]): Active
Activity (HFL1 [21]): Dose-Dependent Effect
Activity (HFL1 [22]): 0.092%
IC50 at 48 h [23]: 9.2 µM
Activity (HFL1 [24]): Dose-Dependent Effect
Activity (HFL1 [25]): Active
viability at 10 µM (HFL1 [26]): 74.3%
Activity (HFL1 [27]): 0.034%
